From US20260207640A1, “Polyphenolic Boronates and Use Thereof” (The Medical College of Wisconsin, Inc., priority 2022, published 2026)
Entries after “also recorded” stand apart in the source; their conditions may differ.

Assays:
[1] = test system: arginase-1 and NOS-2 (or iNOS); details: cited from earlier work
[2] = test system: glioblastoma (U87MG) cells; experiment: IncuCyte cell proliferation, glioblastoma cells; assay type: cell-based, human; details: for antiproliferative effect, boronate versus non-boronated analog: comparison within pair (HNK/HNK-B, Mito-HNK/Mito-HNK-B, MGN/MGN-B, Mito-MGN/Mito-MGN-B)
Procedure: (§1) FIGS. 2A-2C show effects of HNK and HNK-B on the proliferation of glioblastoma (U87MG), pancreatic cancer (MiaPaCa-2) cells, and lung cancer (A549) cells. The effects of HNK and HNK-B on the proliferation of U87MG (FIG. 2A), MiaPaCa-2 (FIG. 2B), or A549 (FIG. 2C) cells were monitored in the IncuCyte Live-Cell Analysis system. The IncuCyte analyzer provides real-time updates on cell confluence based on segmentation of high definition-phase contrast images. Representative cell images are shown as segmentation masks, illustrated when control cells reached 90% confluence (vertical solid line). The half maximal inhibitory concentration (IC50) values for U87MG (FIG. 2A), MiaPaCa-2 (FIG. 2B), or A549 (FIG. 2C) cells were determined at the point at which control cells reached ~90% confluence (vertical solid line). Relative cell confluence (control is taken as 100%) is plotted against concentration. Dashed lines represent the fitting curves used to determine the IC50 values as indicated. Data shown are the mean±standard deviation (SD).
(§2) The effects of Mito-HNK and Mito-HNK-B on the proliferation of U87MG (FIG. 3A), MiaPaCa-2 (FIG. 3B), or A549 (FIG. 3C) cells were monitored in the IncuCyte Live-Cell Analysis system. The IncuCyte analyzer provides real-time updates on cell confluence based on segmentation of high definition-phase contrast images. Representative cell images are shown as segmentation masks, illustrated when control cells reached 90% confluence (vertical solid line). The IC50 values for U87MG (FIG. 3A), MiaPaCa-2 (FIG. 3B), or A549 (FIG. 3C) cells were determined at the point at which control cells reached ~90% confluence (vertical solid line). Relative cell confluence (control is taken as 100%) is plotted against concentration. Dashed lines represent the fitting curves used to determine the IC50 values as indicated. Data shown are the mean±SD.
FIGS. 4A-4B show effects of Mito-MGN, Mito-MGN-B, MGN, and MGN-B on the proliferation of glioblastoma cancer (U87MG) cells. The effects of Mito-MGN, Mito-MGN-B, MGN, and MGN-B on the proliferation of U87MG cells were monitored in the IncuCyte Live-Cell Analysis system. The IncuCyte analyzer provides real-time updates on cell confluence based on segmentation of high definition-phase contrast images. Representative cell images are shown as segmentation masks, illustrated in black when control cells reached 90% confluence. Full growth curves of Mito-MGN and Mito-MGN-B are shown in panel (FIG. 4A). The IC50 values were determined at the point at which control cells reached ~90% confluence. Relative cell confluence (control is taken as 100%) is plotted against concentration. Dashed lines in FIG. 4B represent the fitting curves used to determine the IC50 values as indicated for Mito-MGN and Mito-MGN-B (left panel) and for MGN and MGN-B (right panel). Data shown are the mean±SD.
(§3) The U87MG (ATCC Cat #HTB-14, human glioblastoma cancer cells), A549 (ATCC Cat #CCL-185, human lung cancer cells), and MiaPaCa-2 (ATCC Cat #CRL-1420, human pancreatic cancer cells) cell lines were purchased from the American Tissue Culture Collection (Manassas, VA, USA). The UACC-62 melanoma cell line was purchased from AddexBio (San Diego, CA; Cat #C0020003). All cell lines were regularly authenticated. All cell lines were grown at 37° C. in 5% carbon dioxide. The U87MG, A549, and UACC-62 cells were maintained in Roswell Park Memorial Institute Medium 1640 medium (Thermo Fisher Scientific, Waltham, MA, USA; Cat #11875) supplemented with 10% fetal bovine serum. MiaPaCa-2 cells were maintained in Dulbecco's Modified Eagle Medium (Thermo Fisher Scientific, Waltham, MA, USA; Cat #11965) and supplemented with 10% fetal bovine serum. All cells were stored in liquid nitrogen and used within 20 passages after thawing.
The IncuCyte Live-Cell Analysis System was used to continuously monitor cell proliferation, as described in earlier publications.

[3] = test system: pancreatic cancer (MiaPaCa-2) cells; experiment: IncuCyte cell proliferation, pancreatic cancer cells; assay type: cell-based, human; details: comparison within pair
Procedure: as §1
as §2, with “mean±SD. […]” for “mean±SD.”

lung cancer (A549) cells = experiment: IncuCyte cell proliferation, lung cancer cells; assay type: cell-based, human; details: comparison within pair
Procedure: as §1
as §2, with “mean±SD. […]” for “mean±SD.”

melanoma (UACC-62) cells = experiment: IncuCyte cell proliferation, melanoma cells; assay type: cell-based; details: dose-dependent
Procedure: FIGS. 5A-5B show effects of MGN and MGN-B on the proliferation of melanoma cancer (UACC-62) cells. The effects of MGN and MGN-B on the proliferation of UACC-62 cells were monitored in the IncuCyte Live-Cell Analysis system. The IncuCyte analyzer provides real-time updates on cell confluence based on segmentation of high definition-phase contrast images. The IC50 values were determined at the point at which control cells reached ~90% confluence. Relative cell confluence (control is taken as 100%) is plotted against concentration. Dashed lines in FIG. 5B represent the fitting curves used to determine the IC50 values as indicated for MGN and MGN-B. Data shown are the mean±SD.
as §3, with “MiaPaCa-2 cells were maintained in Dulbecco's Modified Eagle Medium (Thermo Fisher Scientific, Waltham, MA, USA; Cat #11965) and supplemented with 10% fetal bovine serum. All cells were stored in liquid nitrogen and used within 20 passages after thawing.” left out

[4] = test system: granulocytic-myeloid-derived suppressor cells (G-MDSCs) and regulatory T cells (Tregs); details: cited from earlier work
[5] = Oxidation of boronates by H2O2, HPLC; assay type: physicochemical
Procedure: (§4) All samples were incubated at room temperature in aqueous solution containing phosphate buffer (0.1 M, pH 7.4) and DTPA (10 μM). Absorption traces recorded using UV absorption detection at 260 nm.
(§5) High-performance liquid chromatography (HPLC) analysis was performed using an Agilent 1200 apparatus equipped with ultraviolet-visible spectroscopy absorption and a mass spectrometry detector (single quadrupole).
(§6) In the studies on the reaction profile of ONOO oxidation of Mito-HNK-B and derivatives, 2 μL of sample was injected into the HPLC system equipped with a C18 column (Phenomenex, Kinetex Evo, 100×2.1 mm, 1.7 μm) equilibrated with 5% MeCN containing 0.1% (v/v) formic acid. The compounds were separated by a linear increase in MeCN phase concentration from 5% to 100% over 8 min and until 15 min at 100% MeCN using a flow rate of 0.21 mL/min. The peak areas detected by monitoring the absorption at 260 nm were used for the quantitation.
(§7) The stock solutions of oxidants (HOCl and H2O2) were prepared freshly before each experiment; their concentrations were determined by spectrophotometry by reacting nitrite with H2O2, using the procedure described previously. […] Immediately prior to each experiment, the concentration of ONOO was determined spectrally at 302 nm (ε=1.7× 103 M^−1 cm^−1) after dilution in 0.1 M sodium hydroxide to ~10 mM concentration. […]

[6] = Oxidation of boronates by ONOO−, HPLC; assay type: physicochemical; details: in the presence of ONOO−
Procedure: as §4, §5, §6, §7

[7] = Hydrolysis of pinacolate ester in aqueous phosphate buffer, HPLC; assay type: physicochemical; details: upon dilution in aqueous phosphate buffer
Procedure: Stock solutions of HNK-B, HNK-B^2, and Mito-HNK-B were prepared in dimethyl sulfoxide at a 10 mM concentration and this solution was added directly to the buffer to obtain the desired concentration. […] Thus, the boronic acid species were tested with the oxidants. When studying HNK-B and Mito-HNK-B oxidations by HOCl, stock solutions (10 mM) in MeCN were added to the phosphate buffer (100 mM, pH 7.4) to obtain a final concentration of the probe of 500 μM. Dimethyl sulfoxide solvent was avoided due to known rapid quenching of HOCl by dimethyl sulfoxide.

kidney = details: in vivo; cited from earlier work
lung tumors = details: mice xenografts; cited from earlier work
[8] = not told; cited from earlier work
NOX2 = biological target: T1, NOX2 (Homo sapiens, UniProt P04839); experiment: Oxidant formation from NOX2; details: preliminary results
T1 sequence (P04839 2-570 limits assumed): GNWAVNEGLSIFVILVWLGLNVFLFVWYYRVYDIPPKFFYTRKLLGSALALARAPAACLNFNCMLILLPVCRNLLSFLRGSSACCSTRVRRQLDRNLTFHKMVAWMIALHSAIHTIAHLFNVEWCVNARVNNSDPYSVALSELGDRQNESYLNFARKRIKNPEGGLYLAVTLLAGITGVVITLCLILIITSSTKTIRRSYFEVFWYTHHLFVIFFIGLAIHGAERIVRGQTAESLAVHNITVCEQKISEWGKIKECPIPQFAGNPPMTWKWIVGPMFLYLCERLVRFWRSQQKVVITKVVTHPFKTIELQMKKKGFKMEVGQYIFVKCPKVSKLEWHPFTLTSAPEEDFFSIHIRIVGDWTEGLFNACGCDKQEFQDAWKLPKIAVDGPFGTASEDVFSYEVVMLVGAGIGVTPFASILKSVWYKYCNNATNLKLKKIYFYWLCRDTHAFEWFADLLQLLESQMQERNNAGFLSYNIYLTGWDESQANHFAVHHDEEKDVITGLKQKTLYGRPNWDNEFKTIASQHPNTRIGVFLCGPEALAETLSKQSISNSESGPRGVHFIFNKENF

For `NC(=O)c1c(COC(=O)c2ccccc2O)no[n+]1[O-]` [AT38, 3-(aminocarbonyl) furoxan-4-yl) methyl salicylate], the chemokine nitration [1] is given as “mitigated chemokine nitration” and the “expression of arginase-1 and NOS-2 (or iNOS) in myeloid cells in the TME” value [1] is given as “inhibited the expression”.

For `C=CCc1ccc(O)c(-c2ccc(O)c(CC=C)c2)c1` [HNK, honokiol], the “antiproliferative effect, boronate versus non-boronated analog” value [2] was “nearly the same”, the “antiproliferative effect, boronate versus non-boronated analog” value [3] was “nearly the same” and the “antiproliferative effect, boronate versus non-boronated analog” value (lung cancer (A549) cells) was “nearly the same”.

With `C=CCc1ccc(O)c(-c2cc(CC=C)ccc2O)c1` [MGN, magnolol] the effect on proliferation (melanoma (UACC-62) cells) was “decreasing the proliferation”.

With `C=CCc1ccc(O)c(-c2cc(CC=C)ccc2OCc2ccc(B3OC(C)(C)C(C)(C)O3)cc2)c1` [MGN-B, Magnolol boronate] the “antiproliferative effect, boronate versus non-boronated analog” value [2] was “increased the potency” and the effect on proliferation (melanoma (UACC-62) cells) was “decreasing the proliferation”.

For `O=C1C(OCCCCCCCCCC[P+](c2ccccc2)(c2ccccc2)c2ccccc2)=C(C2CCC(c3ccc(Cl)cc3)CC2)C(=O)c2ccccc21` (stereo not drawn) [Mito-ATO, Mitochondria-targeted atovaquone], the “G-MDSCs and Tregs in the TME” value ([4]; flow cytometry analysis) is given as “significant decreases” and the “T cell immune responses locally and in distant tumor sites” value ([4]; intratumoral injection into primary tumors, spontaneous tumor model) is given as “triggered potent T cell immune responses”.

In the case of “Mitochondria-targeted honokiol boronate [Mito-HNK-B]”, the “antiproliferative effect, boronate versus non-boronated analog” value [2] was “slightly more potent; also recorded: nearly the same”, the “conversion of boronate to parent polyphenol” value ([5]; at higher concentrations of H2O2) was “increased” and the “conversion of boronate to parent polyphenol (HNK or Mito-HNK)” value ([5]; in the presence of H2O2 (500 μM), boronate 500 μM, phosphate buffer 0.1 M pH 7.4, room temperature) was 37%. For the same compound, the “antiproliferative effect, boronate versus non-boronated analog” value [3] was “nearly the same”, the “oxidation to HNK / Mito-HNK” value [6] was “rapidly oxidized” and the “hydrolysis of pinacolate ester to the corresponding boronic acid” value [7] was “fast hydrolysis”. For the same compound, the “antiproliferative effect, boronate versus non-boronated analog” value (lung cancer (A549) cells) was “nearly the same”.

For “Mitochondria-targeted magnolol boronate [Mito-MGN-B]”, the “antiproliferative potency of TPP+ conjugate compared with parent compounds MGN/MGN-B” value [2] was “increased their antiproliferative potencies” and the “antiproliferative effect, boronate versus non-boronated analog” value [2] was “slightly more potent”.

In the case of “mitochondria-targeted carboxy-proxyl [Mito-CP]”, the cisplatin-induced renal toxicity (kidney) is given as “inhibited cisplatin-induced renal toxicity”.

For “mitochondria-targeted honokiol [Mito-HNK]”, the “antiproliferative effect, boronate versus non-boronated analog” value [2] is listed as “nearly the same”, the “antiproliferative effect, boronate versus non-boronated analog” value [3] is listed as “nearly the same” and the “metastasis of lung tumors to the brain” value (lung tumors) is listed as “inhibited metastasis”. The blood-brain-barrier permeability [8] was “showed blood-brain-barrier permeability”, the “oxidant formation from NOX2” value (NOX2) was “inhibits oxidant formation” and the “antiproliferative effect, boronate versus non-boronated analog” value (lung cancer (A549) cells) was “nearly the same”.

In the case of “mitochondria-targeted magnolol [Mito-MGN]”, the “antiproliferative potency of TPP+ conjugate compared with parent compounds MGN/MGN-B” value [2] was “increased their antiproliferative potencies”.
